Assay: xn = mol fraction of the nth substance listed

CC(=O)N(C)C + CCO
viscosity [mPa·s], 101 kPa
Settings | 298.15 K | 303.15 K | 308.15 K | 313.15 K | 318.15 K
x1 = 0.0653 | – | 0.9549 | 0.8702 | 0.8052 | 0.7371
x1 = 0.0809 | – | 0.944 | – | – | –
x1 = 0.1358 | 0.9918 | 0.9129 | 0.8423 | 0.7795 | 0.716
x1 = 0.1399 | – | 0.915 | – | – | –
x1 = 0.2001 | – | 0.894 | – | – | –
x1 = 0.2123 | 0.9588 | 0.8868 | 0.8171 | 0.7631 | 0.7077
x1 = 0.2626 | – | 0.878 | – | – | –
x1 = 0.2954 | 0.9368 | 0.8691 | 0.8034 | 0.7509 | 0.6996
x1 = 0.3738 | – | 0.865 | – | – | –
x1 = 0.386 | 0.9289 | 0.8634 | 0.7995 | 0.751 | 0.6999
x1 = 0.4854 | 0.928 | 0.8622 | 0.8019 | 0.753 | 0.7022
x1 = 0.4935 | – | 0.861 | – | – | –
x1 = 0.5947 | 0.9232 | 0.8595 | 0.7991 | 0.7552 | 0.7034
x1 = 0.5953 | – | 0.862 | – | – | –
x1 = 0.6938 | – | 0.863 | – | – | –
x1 = 0.7155 | 0.9273 | 0.8639 | 0.8093 | – | 0.7108
x1 = 0.7965 | – | 0.865 | – | – | –
x1 = 0.8498 | 0.9421 | 0.8705 | 0.81 | – | 0.7156
x1 = 0.8971 | – | 0.867 | – | – | –

CCCCCCCCCO + CCCCCCCCCCO
Settings | viscosity [mPa·s]
293.15 K, 101.33 kPa, x1 = 0.1193 | 14.2
293.15 K, 101.33 kPa, x1 = 0.3048 | 13.76
293.15 K, 101.33 kPa, x1 = 0.5886 | 12.82
293.15 K, 101.33 kPa, x1 = 0.8745 | 12.02
298.15 K, 101.33 kPa, x1 = 0.2583 | 11.34
298.15 K, 101.33 kPa, x1 = 0.6152 | 10.53
298.15 K, 101.33 kPa, x1 = 0.869 | 9.852
298.15 K, 101.8 kPa, x1 = 0.9074 | 9.726
308.15 K, 101.8 kPa, x1 = 0.1082 | 7.899
308.15 K, 101.8 kPa, x1 = 0.3202 | 7.632
308.15 K, 101.8 kPa, x1 = 0.7188 | 7.125
308.15 K, 101.8 kPa, x1 = 0.9074 | 6.876
318.15 K, 101.8 kPa, x1 = 0.1082 | 5.649
318.15 K, 101.8 kPa, x1 = 0.3202 | 5.463
318.15 K, 101.8 kPa, x1 = 0.5233 | 5.336
318.15 K, 101.8 kPa, x1 = 0.7188 | 5.124
318.15 K, 101.8 kPa, x1 = 0.9074 | 4.953

CC(O)CN(C)C (stereo not given) + NCc1ccccc1
viscosity [mPa·s], 101 kPa
Settings | x1 = 0.1003 | x1 = 0.1998 | x1 = 0.3 | x1 = 0.4001 | x1 = 0.5002 | x1 = 0.5999 | x1 = 0.7 | x1 = 0.8 | x1 = 0.8997
293.15 K | 1.87 | 1.91 | 1.92 | 1.91 | 1.88 | 1.84 | 1.78 | 1.7 | 1.6
303.15 K | 1.5 | 1.51 | 1.51 | 1.5 | 1.48 | 1.44 | 1.39 | 1.33 | 1.25
313.15 K | 1.23 | 1.23 | 1.22 | 1.21 | 1.18 | 1.14 | 1.1 | 1.05 | 1
323.15 K | 1.06 | 1.05 | 1.03 | 1.01 | 0.98 | 0.95 | 0.91 | 0.87 | 0.83

Cc1c[nH]cn1 + c1ccccc1
viscosity [mPa·s], 101 kPa
Settings | 303.15 K | 323.15 K
x1 = 0.003559 | 0.568 | –
x1 = 0.007082 | 0.584 | –
x1 = 0.02102 | 0.631 | 0.479
x1 = 0.02167 | 0.636 | 0.48
x1 = 0.04045 | 0.729 | 0.533
x1 = 0.04194 | 0.748 | 0.543
x1 = 0.04196 | 0.749 | –
x1 = 0.05112 | 0.796 | 0.574
x1 = 0.08708 | 1.004 | –
x1 = 0.1079 | 1.123 | –
x1 = 0.1551 | 1.496 | –
x1 = 0.2018 | 1.869 | –
x1 = 0.2491 | 2.344 | –

CCCCCCCCCO + CCCO
viscosity [mPa·s], 101 kPa
Settings | 298.15 K | 308.15 K | 318.15 K
x2 = 0.05 | 8.682 | 6.217 | 4.482
x2 = 0.1 | 8.263 | 5.92 | 4.293
x2 = 0.15 | 7.846 | 5.632 | 4.11
x2 = 0.2 | 7.432 | 5.351 | 3.929
x2 = 0.25 | 7.022 | 5.076 | 3.752
x2 = 0.3 | 6.618 | 4.806 | 3.575
x2 = 0.35 | 6.22 | 4.542 | 3.399
x2 = 0.4 | 5.83 | 4.282 | 3.223
x2 = 0.45 | 5.447 | 4.026 | 3.046
x2 = 0.5 | 5.073 | 3.774 | 2.869
x2 = 0.55 | 4.708 | 3.525 | 2.691
x2 = 0.6 | 4.352 | 3.279 | 2.514
x2 = 0.65 | 4.005 | 3.037 | 2.337
x2 = 0.7 | 3.668 | 2.798 | 2.161
x2 = 0.75 | 3.34 | 2.563 | 1.988
x2 = 0.8 | 3.022 | 2.332 | 1.819
x2 = 0.85 | 2.712 | 2.106 | 1.656
x2 = 0.9 | 2.412 | 1.884 | 1.5
x2 = 0.95 | 2.12 | 1.668 | 1.354

CCCCCC[n+]1ccn(C)c1.O=[N+]([O-])[O-] + CCCCCCCO
Settings | viscosity [mPa·s]
308.15 K, 100 kPa, x1 = 0.9381 | 206.5

CC(N)=O + O
101 kPa
Settings | viscosity [mPa·s]
293.15 K, x1 = 0.0438 | 1.015
293.15 K, x1 = 0.0791 | 1.178
293.15 K, x1 = 0.1282 | 1.416
295.65 K, x1 = 0.02282 | 1.222
295.65 K, x1 = 0.03616 | 1.155
295.65 K, x1 = 0.03629 | 1.149
295.65 K, x1 = 0.0429 | 1.262
295.65 K, x1 = 0.07191 | 1.716
295.65 K, x1 = 0.07575 | 1.47
298.15 K, x1 = 0.0024 | 0.89
298.15 K, x1 = 0.0185 | 0.991
298.15 K, x1 = 0.06152 | 1.232
298.15 K, x1 = 0.09656 | 1.458
298.15 K, x1 = 0.1531 | 1.875
298.15 K, x1 = 0.4073 | 4.442
303 K, x1 = 0.0363 | 1.149
303 K, x1 = 0.0438 | 1.015
303 K, x1 = 0.0791 | 1.178
303 K, x1 = 0.0928 | 1.416

CN(C)CCCO + NCCCO
viscosity [mPa·s], 100 kPa
Settings | x2 = 0.1 | x2 = 0.1998 | x2 = 0.2997 | x2 = 0.4008 | x2 = 0.5 | x2 = 0.5024 | x2 = 0.6004 | x2 = 0.7021 | x2 = 0.7992 | x2 = 0.9007
293.15 K | 8.883 | 10.61 | 12.71 | 15.1 | 18.49 | 18.49 | 21.41 | 24.67 | 29.63 | 34.66
303.15 K | 6.062 | 7.04 | 8.322 | 9.824 | 11.73 | 11.73 | 13.48 | 15.36 | 18.09 | 20.64
313.15 K | 4.35 | 5.099 | 5.838 | 6.628 | 7.819 | 7.819 | 8.782 | 9.908 | 11.62 | 13.22
323.15 K | 3.23 | 3.72 | 4.206 | 4.668 | 5.389 | 5.389 | 6.034 | 6.779 | 7.862 | 8.889
